Laboratory results: ChEMBL document CHEMBL1139101, “Potent, selective, and orally active adenosine A2A receptor antagonists: arylpiperazine derivatives of pyrazolo[4,3-e]-1,2,4-triazolo[1,5-c]pyrimidines” (Bioorg Med Chem Lett, 2007)
Values after ≈ are worked out from the molar mass of the structure shown.

Legend:
Rattus norvegicus [1] = assay: Inhibition of haloperidol-induced catalepsy in rat at 1 mg/kg, po after 1 hr; format: functional
Homo sapiens [2] = organism: Homo sapiens; assay: Selectivity of human adenosine A2A receptor over human adenosine A1 receptor
Adenosine receptor A2a [3] = target: Adenosine receptor A2a (Homo sapiens, UniProt P29274); assay: Binding affinity to human adenosine A2A receptor
Rattus norvegicus [4] = assay: Inhibition of haloperidol-induced catalepsy in rat at 1 mg/kg, po after 4 hrs; format: functional
Adenosine receptor A3 = target: T1, Adenosine receptor A3 (Homo sapiens, UniProt P0DMS8); assay: Binding affinity to human adenosine A3 receptor
T1 sequence (P0DMS8 whole entry): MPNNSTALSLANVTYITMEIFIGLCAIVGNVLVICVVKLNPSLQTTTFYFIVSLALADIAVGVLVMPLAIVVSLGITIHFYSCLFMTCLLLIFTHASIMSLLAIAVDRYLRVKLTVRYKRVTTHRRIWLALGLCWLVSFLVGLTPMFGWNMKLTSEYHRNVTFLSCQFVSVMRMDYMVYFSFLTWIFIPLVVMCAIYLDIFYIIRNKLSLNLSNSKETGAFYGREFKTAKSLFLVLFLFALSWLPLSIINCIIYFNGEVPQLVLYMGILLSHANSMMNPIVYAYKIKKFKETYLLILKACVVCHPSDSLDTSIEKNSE

Adenosine receptor A2a [5] = target: Adenosine receptor A2a (Rattus norvegicus, UniProt P30543); assay: Binding affinity to rat adenosine A2A receptor
[6] = Solubility in 0.01 N Hcl; format: physicochemical; conditions: buffer
[7] = Solubility in water at pH 5.1; format: physicochemical
Adenosine receptor A2b = target: T2, Adenosine receptor A2b (Homo sapiens, UniProt P29275); assay: Binding affinity to human adenosine A2B receptor
T2 sequence (P29275 whole entry): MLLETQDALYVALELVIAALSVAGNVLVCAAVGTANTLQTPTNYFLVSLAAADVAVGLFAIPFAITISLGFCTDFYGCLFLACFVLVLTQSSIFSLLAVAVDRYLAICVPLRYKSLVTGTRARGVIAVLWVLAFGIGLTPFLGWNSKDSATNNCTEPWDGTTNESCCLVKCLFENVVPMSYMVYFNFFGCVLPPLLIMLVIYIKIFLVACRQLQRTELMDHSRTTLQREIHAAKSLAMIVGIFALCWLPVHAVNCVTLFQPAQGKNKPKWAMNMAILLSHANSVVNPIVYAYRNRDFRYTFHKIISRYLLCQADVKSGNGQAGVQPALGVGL

Rattus norvegicus [8] = assay: Reversal of haloperidol-induced catalepsy in orally dosed rat after 1 hr; format: functional; conditions: po, read-out: MED
Adenosine receptor A1 = target: T3, Adenosine receptor A1 (Homo sapiens, UniProt P30542); assay: Binding affinity to human adenosine A1 receptor
T3 sequence (P30542 whole entry): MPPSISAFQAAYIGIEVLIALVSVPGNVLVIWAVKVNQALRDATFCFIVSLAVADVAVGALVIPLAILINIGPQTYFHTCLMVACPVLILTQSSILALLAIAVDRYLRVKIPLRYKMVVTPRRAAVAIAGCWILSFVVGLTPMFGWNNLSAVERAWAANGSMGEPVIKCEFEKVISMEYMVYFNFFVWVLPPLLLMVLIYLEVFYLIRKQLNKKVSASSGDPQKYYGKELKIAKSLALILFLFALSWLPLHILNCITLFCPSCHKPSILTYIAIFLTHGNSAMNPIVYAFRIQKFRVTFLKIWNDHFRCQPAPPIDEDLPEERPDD

[9] = Oral bioavailability in rat at 3 mg/kg; format: ADME, organism-based; conditions: in vivo
[10] = Clearance in rat at 1 mg/kg, iv; format: ADME, organism-based; design: dose 1 mg/kg, route intravenous; conditions: in vivo
[11] = AUC in rat at 3 mg/kg, po; format: ADME, organism-based; design: dose 3 mg/kg, route oral; conditions: plasma
[12] = Volume of distribution at steady state in rat at 1 mg/kg, iv; format: ADME, organism-based; design: dose 1 mg/kg, route intravenous; conditions: in vivo, read-out: Vdss
[13] = Half life in rat at 1 mg/kg, iv; format: ADME, organism-based; design: dose 1 mg/kg, route intravenous; conditions: in vivo
[14] = Cmax in rat at 3 mg/kg, po; format: ADME, organism-based; design: dose 3 mg/kg, route oral; conditions: in vivo
[15] = Ratio of drug level in brain to plasma in rat; format: ADME
[16] = Tmax in rat at 3 mg/kg, po; format: ADME, organism-based; design: dose 3 mg/kg, route oral; conditions: in vivo
Homo sapiens [17] = organism: Homo sapiens; assay: Selectivity of human adenosine A2A receptor over human adenosine A3 receptor
[18] = target: Adenosine receptor A2a (Rattus norvegicus) (UniProt P30543); assay: Antagonist activity at rat adenosine A2A receptor assessed as CGS 21680-induced inhibition of adenylate cyclase activity by cell-based assay; format: functional
Homo sapiens [19] = organism: Homo sapiens; assay: Selectivity of human adenosine A2A receptor over human adenosine A2B receptor

Chain of Adenosine receptor A2a (Homo sapiens, UniProt P29274) (P29274 whole entry): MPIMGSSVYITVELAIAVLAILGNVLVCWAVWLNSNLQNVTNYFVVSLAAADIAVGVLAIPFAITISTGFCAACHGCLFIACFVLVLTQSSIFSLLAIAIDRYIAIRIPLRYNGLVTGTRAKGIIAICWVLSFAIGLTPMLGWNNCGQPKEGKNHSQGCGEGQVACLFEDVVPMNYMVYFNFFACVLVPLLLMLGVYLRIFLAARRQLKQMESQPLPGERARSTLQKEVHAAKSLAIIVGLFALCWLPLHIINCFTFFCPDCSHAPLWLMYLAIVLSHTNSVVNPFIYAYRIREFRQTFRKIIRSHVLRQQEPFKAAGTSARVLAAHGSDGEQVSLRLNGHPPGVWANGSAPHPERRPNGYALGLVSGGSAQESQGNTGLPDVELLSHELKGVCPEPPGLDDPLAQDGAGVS
Chain of Adenosine receptor A2a (Rattus norvegicus, UniProt P30543) (P30543 whole entry): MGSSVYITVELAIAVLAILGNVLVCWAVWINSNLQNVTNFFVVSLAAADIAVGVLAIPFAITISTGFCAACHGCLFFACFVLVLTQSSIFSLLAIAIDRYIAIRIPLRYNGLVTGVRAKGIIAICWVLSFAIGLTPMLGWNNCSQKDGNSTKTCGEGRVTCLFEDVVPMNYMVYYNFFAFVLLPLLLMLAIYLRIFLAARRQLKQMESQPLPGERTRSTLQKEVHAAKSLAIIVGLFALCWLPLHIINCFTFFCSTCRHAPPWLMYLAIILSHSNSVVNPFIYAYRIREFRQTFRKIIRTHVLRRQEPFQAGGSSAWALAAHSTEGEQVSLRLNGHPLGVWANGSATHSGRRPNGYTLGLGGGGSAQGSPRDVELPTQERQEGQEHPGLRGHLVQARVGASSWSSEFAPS
Chain of Adenosine receptor A2a (Rattus norvegicus) (P30543 whole entry): as above

| Ratio Ki (Homo sapiens [2]) | Ki (Adenosine receptor A2a [3]) | SMILES | inhibition in vivo at 1 mg/kg (Rattus norvegicus [1]) | inhibition in vivo at 1 mg/kg (Rattus norvegicus [4]) | other results |
| --- | --- | --- | --- | --- | --- |
| 427 | 0.8 nM | CC(=O)COc1ccc(N2CCN(CCn3ncc4c3nc(N)n3nc(-c5ccco5)nc43)CC2)cc1 | 15% | 10% | – |
| 523 | 2.2 nM | C[S+]([O-])COc1ccc(N2CCN(CCn3ncc4c3nc(N)n3nc(-c5ccco5)nc43)CC2)cc1 (stereo unspecified) | 30% | 5% | – |
| 848 | 1.4 nM | CCOc1ccc(N2CCN(CCn3ncc4c3nc(N)n3nc(-c5ccco5)nc43)CC2)cc1 | 27% | – | – |
| 1520 | 0.6 nM | Nc1nc2c(cnn2CCN2CCN(c3ccc(OCCO)cc3)CC2)c2nc(-c3ccco3)nn12 | 15% | 25% | – |

The remaining lines, values behind:

| SMILES | Ratio Ki (Homo sapiens [2]) | Ki (Adenosine receptor A2a [3]) | inhibition in vivo at 1 mg/kg (Rattus norvegicus [1]) | inhibition in vivo at 1 mg/kg (Rattus norvegicus [4]) | other results |
| --- | --- | --- | --- | --- | --- |
| Nc1nc2c(cnn2CCN2CCN(c3ccccc3)CC2)c2nc(-c3ccco3)nn12 | 343 | 1.6 nM | 52% | 0% | – |
| COCCOc1ccc(N2CCN(CCn3ncc4c3nc(N)n3nc(-c5ccco5)nc43)CC2)c(F)c1 | 1740 | 0.4 nM | 60% | 70% | – |
| COCCOc1ccc(N2CCN(CCn3ncc4c3nc(N)n3nc(-c5ccco5)nc43)CC2)cc1 [PRELADENANT] | – | – | 77% | 70% | Ki (Adenosine receptor A3): > 1000 nM; Ki (Adenosine receptor A2a [5]): 2.5 nM; solubility [6]: 2000 µM (≈ 1010 µg/mL); solubility [7]: 0.2 µM (≈ 0.101 µg/mL); Ki (Adenosine receptor A2b): > 1700 nM; minimal effective dose (Rattus norvegicus [8]): 0.3 mg/kg; Ki (Adenosine receptor A1): > 1000 nM |
| Nc1nc2c(cnn2CCN2CCN(c3ccc(OCCOC4CC4)cc3)CC2)c2nc(-c3ccco3)nn12 | 930 | 0.6 nM | 59% | 30% | – |
| Nc1nc2c(cnn2CCN2CCN(c3ccc(O)cc3)CC2)c2nc(-c3ccco3)nn12 | 186 | 1.3 nM | 0% | – | – |
| Nc1nc2c(cnn2CCN2CCN(c3ccc(Cl)cc3)CC2)c2nc(-c3ccco3)nn12 | 1350 | 0.5 nM | 11% | – | – |
| COC(C)COc1ccc(N2CCN(CCn3ncc4c3nc(N)n3nc(-c5ccco5)nc43)CC2)cc1 (racemic) | 539 | 1.6 nM | 55% | 20% | – |
| Nc1nc2c(cnn2CCN2CCN(c3ccc(F)cc3)CC2)c2nc(-c3ccco3)nn12 | 101 | 1 nM | 8% | – | – |
| N#Cc1ccc(N2CCN(CCn3ncc4c3nc(N)n3nc(-c5ccco5)nc43)CC2)cc1 | 571 | 2.1 nM | 0% | – | – |
| COCCOc1ccc(N2CCN(CCn3ncc4c3nc(N)n3nc(-c5ccco5)nc43)CC2)cc1.Cl | – | – | – | – | bioavailability [9]: 57%; clearance [10]: 37 mL/min/kg; AUC [11]: 1.56 µM·h; Vd [12]: 2.6 L/kg; half-life [13]: 2.1 h; Cmax [14]: 762 nM; Kp [15]: 1; Tmax [16]: 0.25 h |
| COCCCOc1ccc(N2CCN(CCn3ncc4c3nc(N)n3nc(-c5ccco5)nc43)CC2)cc1 | 1160 | 0.6 nM | 8% | 2% | – |
| Nc1nc2c(cnn2CCN2CCN(c3c(F)cc(F)cc3F)CC2)c2nc(-c3ccco3)nn12 | 319 | 1.1 nM | 65% | 75% | – |
| Nc1nc2c(cnn2CCN2CCN(c3ccc(F)c(F)c3)CC2)c2nc(-c3ccco3)nn12 | 169 | 1.4 nM | 45% | – | – |
| Nc1nc2c(cnn2CCN2CCN(c3ccc(F)cc3F)CC2)c2nc(-c3ccco3)nn12 | > 1600 | 0.6 nM | 75% | 80% | – |
| Nc1nc2c(cnn2CCN2CCN(c3ccc(F)c(F)c3F)CC2)c2nc(-c3ccco3)nn12 | 1500 | 0.6 nM | 65% | 40% | – |
| COCCOc1ccc(N2CCN(CCn3ncc4c3nc(N)n3nc(-c5ccco5)nc43)CC2)cc1 | – | – | – | – | Activity (Homo sapiens [17]): > 1000; Kb [18]: 0.7 nM; Activity (Homo sapiens [19]): > 1000 |
| Nc1nc2c(cnn2CCN2CCN(c3ccccc3F)CC2)c2nc(-c3ccco3)nn12 | 894 | 0.6 nM | 20% | 25% | – |
